Test results from ChEMBL document CHEMBL1201862, “PubChem BioAssay data set” (2004).
Several values for one entry are separate records, joined by “and”; a condition that tells them apart may be missing. Equal values may be shown once.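 Test compounds were applied to cells in 96-well plates for 48 hours at 5 doses. At the GI50, growth is halved.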 Activity calls are given as the source filed them. No stated cut-off is given here; in the data, active = GI50 up to about 1.1 µM and inactive = higher.

Tests used:
Test in all cases: DTP human tumour cell line panel, 48 h
[1] = system: 786-0
[2] = system: A498
[3] = system: A549
[4] = system: ACHN
[5] = system: BT-549
[6] = system: CAKI-1
[7] = system: CCRF-CEM
[8] = system: DU-145
[9] = system: EKVX
[10] = system: HCC 2998
[11] = system: HCT-116
[12] = system: HCT-15
[13] = system: HL-60
[14] = system: HOP-62
[15] = system: HOP-92
[16] = system: HT-29
[17] = system: Hs-578T
[18] = system: KM12
[19] = system: LOX IMVI
[20] = system: M14
[21] = system: MCF7
[22] = system: NCI-H226
[23] = system: NCI-H23
[24] = system: NCI-H460
[25] = system: NCI/ADR-RES
[26] = system: OVCAR-4
[27] = system: OVCAR-5
[28] = system: OVCAR-8
[29] = system: PC-3
[30] = system: RXF 393
[31] = system: SF-268
[32] = system: SF-539
[33] = system: SK-OV-3
[34] = system: SN12C
[35] = system: SNB-75
[36] = system: SW-620
[37] = system: T47D
[38] = system: TK-10
[39] = system: UACC-62
[40] = system: UO-31
[41] = system: COLO 205
[42] = system: IGROV-1
[43] = system: K562
[44] = system: MDA-MB-231
[45] = system: MDA-MB-435
[46] = system: MDA-N
[47] = system: MOLT-4
[48] = system: Malme-3M
[49] = system: OVCAR-3
[50] = system: RPMI-8226
[51] = system: SF-295
[52] = system: SK-MEL-28
[53] = system: SK-MEL-2
[54] = system: SK-MEL-5
[55] = system: SNB-19
[56] = system: SR
[57] = system: U-251
[58] = system: UACC-257
[59] = system: NCI-H522

With `COc1ccc(-c2c(C#N)c(O)n(C3OC(COC(C)=O)C(OC(C)=O)C(OC(C)=O)C3OC(C)=O)c(=S)c2C#N)cc1` (stereo not drawn) the GI50 [1] was 31.7 µM (inactive) and 34 µM (inactive), the GI50 [2] was 30.3 µM (inactive) and 32.1 µM (inactive) and the GI50 [3] was > 100 µM (inactive). The GI50 [4] was 48.6 µM (inactive) and 54.8 µM (inactive), the GI50 [5] was 32.7 µM (inactive) and 24.8 µM (inactive) and the GI50 [6] was 31.4 µM (inactive) and 19.1 µM (inactive). The GI50 [7] was > 100 µM (inactive) and 67.8 µM (inactive), the GI50 [8] was 84.5 µM (inactive) and the GI50 [9] was 25.9 µM (inactive) and 37.3 µM (inactive). The GI50 [10] was 26.5 µM (inactive) and 25.1 µM (inactive), the GI50 [11] was 64 µM (inactive) and 67.3 µM (inactive) and the GI50 [12] was > 100 µM. For the same compound, the GI50 [13] was 22.2 µM (inactive) and 24.5 µM (inactive), the GI50 [14] was 31.6 µM (inactive) and 27 µM (inactive) and the GI50 [15] was 19 µM (inactive) and 17.8 µM (inactive). For the same compound, the GI50 [16] was > 100 µM (inactive), the GI50 [17] was 30.7 µM (inactive) and 32.1 µM (inactive) and the GI50 [18] was 65.9 µM (inactive). The GI50 [19] was 93.1 µM (inactive) and 51.5 µM (inactive), the GI50 [20] was > 100 µM (inactive) and the GI50 [21] was > 100 µM (inactive). For the same compound, the GI50 [22] was > 100 µM (inactive) and 72.8 µM (inactive), the GI50 [23] was 97.5 µM (inactive) and 79.4 µM (inactive) and the GI50 [24] was 68.7 µM (inactive) and 37.6 µM (inactive). For the same compound, the GI50 [25] was > 100 µM (inactive), the GI50 [26] was 29.1 µM (inactive) and 43.7 µM (inactive) and the GI50 [27] was > 100 µM (inactive). The GI50 [28] was 28.4 µM (inactive) and 36.6 µM (inactive), the GI50 [29] was 44.3 µM (inactive) and 66.5 µM (inactive) and the GI50 [30] was 32.1 µM (inactive) and 26 µM (inactive). The GI50 [31] was 25.1 µM (inactive) and 27.9 µM (inactive), the GI50 [32] was 55.2 µM (inactive) and 36.1 µM (inactive) and the GI50 [33] was 33.9 µM (inactive) and 28.6 µM (inactive). The GI50 [34] was 94.8 µM (inactive) and 67 µM (inactive), the GI50 [35] was 26.5 µM (inactive) and 18.9 µM (inactive) and the GI50 [36] was > 100 µM (inactive). The GI50 [37] was 21.5 µM (inactive) and 30.3 µM (inactive), the GI50 [38] was 31.6 µM (inactive) and 36.8 µM (inactive) and the GI50 [39] was 26 µM (inactive) and 25.7 µM (inactive). For the same compound, the GI50 [40] was 33.4 µM (inactive) and 26.1 µM (inactive).
`Cc1cccc(C)c1N1C(=O)C2c3[nH]c4ccccc4c3C3CCC(C(C)(C)C)CC3C2C1=O` (stereo not drawn) was tested, and the GI50 [1] was 8.67 µM (inactive), the GI50 [2] was 15.7 µM (inactive) and the GI50 [3] was 12.3 µM (inactive). The GI50 [4] was 12.4 µM (inactive), the GI50 [5] was 20 µM (inactive) and the GI50 [6] was 12.3 µM (inactive). For the same compound, the GI50 [7] was 12.6 µM (inactive), the GI50 [41] was 10.9 µM (inactive) and the GI50 [8] was 8.45 µM (inactive). For the same compound, the GI50 [9] was 7.16 µM (inactive), the GI50 [10] was 3.85 µM (inactive) and the GI50 [11] was 9.25 µM (inactive). For the same compound, the GI50 [12] was 11.4 µM, the GI50 [13] was 12.8 µM (inactive) and the GI50 [14] was 2.43 µM (inactive). For the same compound, the GI50 [15] was 6.32 µM (inactive), the GI50 [16] was 10.3 µM (inactive) and the GI50 [17] was 16.6 µM (inactive). For the same compound, the GI50 [42] was 15 µM (inactive), the GI50 [43] was 9.06 µM (inactive) and the GI50 [19] was 10.1 µM (inactive). The GI50 [20] was 13.6 µM (inactive), the GI50 [21] was 3.47 µM (inactive) and the GI50 [44] was 11.9 µM (inactive). For the same compound, the GI50 [45] was 11.4 µM (inactive), the GI50 [46] was 11.5 µM (inactive) and the GI50 [47] was 24.6 µM (inactive). The GI50 [48] was 14.4 µM (inactive), the GI50 [22] was 18.4 µM (inactive) and the GI50 [23] was 14.8 µM (inactive). The GI50 [24] was 5.73 µM (inactive), the GI50 [25] was 13.8 µM (inactive) and the GI50 [49] was 13.7 µM (inactive). For the same compound, the GI50 [27] was 24.6 µM (inactive), the GI50 [28] was 17 µM (inactive) and the GI50 [29] was 6.44 µM (inactive). The GI50 [50] was 19.3 µM (inactive), the GI50 [30] was 8.97 µM (inactive) and the GI50 [31] was 14.4 µM (inactive). The GI50 [51] was 17.3 µM (inactive), the GI50 [32] was 17.5 µM (inactive) and the GI50 [52] was 19.9 µM (inactive). The GI50 [53] was 15.6 µM (inactive), the GI50 [54] was 14.3 µM (inactive) and the GI50 [33] was 54.5 µM (inactive). For the same compound, the GI50 [34] was 10.2 µM (inactive), the GI50 [55] was 62.4 µM (inactive) and the GI50 [56] was 9.91 µM (inactive). The GI50 [36] was 5.74 µM (inactive), the GI50 [38] was 17.6 µM (inactive) and the GI50 [57] was 16.8 µM (inactive). The GI50 [58] was 16.5 µM (inactive), the GI50 [39] was 16.1 µM (inactive) and the GI50 [40] was 10.8 µM (inactive).
For `CCC(=O)O[C@H]1CC[C@H]2[C@@H]3CCC4=C/C(=N/OC(=O)c5cccc6c(=O)c7ccccc7[nH]c56)CC[C@]4(C)[C@H]3CC[C@]12C`, the GI50 [1] was 18.4 µM (inactive), the GI50 [2] was 27.1 µM (inactive) and the GI50 [3] was 43.5 µM (inactive). For the same compound, the GI50 [4] was 47.9 µM (inactive), the GI50 [5] was 25.3 µM (inactive) and the GI50 [7] was 14 µM (inactive). For the same compound, the GI50 [41] was 32.3 µM (inactive), the GI50 [9] was 8.53 µM (inactive) and the GI50 [10] was 21.3 µM (inactive). The GI50 [12] was 21.3 µM, the GI50 [14] was 32.1 µM (inactive) and the GI50 [15] was 30.8 µM (inactive). The GI50 [16] was 27.3 µM (inactive), the GI50 [17] was 22.4 µM (inactive) and the GI50 [42] was 21.8 µM (inactive). For the same compound, the GI50 [43] was 18 µM (inactive), the GI50 [18] was 22.9 µM (inactive) and the GI50 [19] was 23.3 µM (inactive). For the same compound, the GI50 [20] was 24.7 µM (inactive), the GI50 [21] was 20.9 µM (inactive) and the GI50 [44] was 88.3 µM (inactive). The GI50 [45] was 27.6 µM (inactive), the GI50 [46] was 35 µM (inactive) and the GI50 [47] was 17.9 µM (inactive). For the same compound, the GI50 [22] was 33.8 µM (inactive), the GI50 [23] was 51.3 µM (inactive) and the GI50 [24] was 22.2 µM (inactive). The GI50 [59] was 18.6 µM (inactive), the GI50 [25] was 31.7 µM (inactive) and the GI50 [49] was 18.3 µM (inactive). The GI50 [26] was 38.2 µM (inactive), the GI50 [27] was 33.7 µM (inactive) and the GI50 [28] was 29.9 µM (inactive). The GI50 [29] was 26.9 µM (inactive), the GI50 [50] was 19.9 µM (inactive) and the GI50 [30] was 22.5 µM (inactive). The GI50 [31] was 38.5 µM (inactive), the GI50 [51] was 29.9 µM (inactive) and the GI50 [32] was 20.6 µM (inactive). The GI50 [52] was 28.7 µM (inactive), the GI50 [53] was 31.6 µM (inactive) and the GI50 [54] was 22.8 µM (inactive). For the same compound, the GI50 [33] was > 100 µM (inactive), the GI50 [34] was 42.9 µM (inactive) and the GI50 [55] was 51.4 µM (inactive). For the same compound, the GI50 [35] was 54.6 µM (inactive), the GI50 [56] was 29.8 µM (inactive) and the GI50 [36] was 32 µM (inactive). The GI50 [37] was 29.9 µM (inactive), the GI50 [38] was 54.6 µM (inactive) and the GI50 [57] was 25.6 µM (inactive). For the same compound, the GI50 [58] was 38.1 µM (inactive), the GI50 [39] was 28.8 µM (inactive) and the GI50 [40] was 26.4 µM (inactive).
